According to patent publication US20200323843A1 (IRR, Inc., priority 2010, published 2020):
Entries after “also recorded” stand apart in the source; their conditions may differ. Where two headings read alike, the source gives them in different places.

Assays:
[1] = test system: human rhinovirus; settings: airway epithelial cells; cited from earlier work
[2] = test system: histamine induced wheal and flare; settings: cited from earlier work
[3] = test system: eosinophil migration, IL-4, IL-6, IL-8; settings: cited from earlier work
[4] = test system: influenza; settings: 10 days; levocetirizine 5 mg po and/or montelukast 10 mg po
Description: A cohort of 20 patients between the ages of 15-30 years of age (and no other co-morbid disease processes), presenting with classic symptoms of influenza: headache, fever, dry cough and extreme fatigue, are identified and divided into four treatment groups. The first group (CONTROL) receives two placebo tablet(s) each administered together at the same time each day for a period of 10 days.
Laboratory data shall consist of a complete blood count, comprehensive metabolic panel, C-reactive protein, T and B cell lymphocyte panel, chest x-ray, and viral and aerobic cultures of the airway. Vital signs will be logged at the initial visit and the patient's fever profile tracked over the interim. Onset, duration and intensity of symptoms (headache, fever, cough, fatigue) will be logged in addition to the time to resolution of symptoms (time zero—first dose of medication(s)). Second endpoint data will include the time it takes to return to full activity, work/school.

[5] = cited from earlier work
[6] = cited from earlier work; remark: listed apart in the source
[7] = cited from earlier work; remark: listed apart in the source
[8] = test system: influenza; settings: patients with influenza; cited from earlier work

## O=C(O)COCCN1CCN([C@H](c2ccccc2)c2ccc(Cl)cc2)CC1 [Levocetirizine, levocetirizine]
[1]
  rhinovirus-induced ICAM-1 and cytokine expression and viral replication: inhibits
[2]; histamine induced wheal and flare data
  potency among the five modern generation antihistamines: most potent
[2]; levocetirizine 5 mg per day vs fexofenadine 180 mg per day
  effectiveness compared with fexofenadine: more effective
[3]
  eosinophil migration: decrease
  inflammatory mediators, IL-4, IL-6, and IL-8: decrease
[4]
  influenza symptoms: reduced fever profile and overall feeling of fatigue, without significant foreshortening of the disease process
[5]; in vivo
  Steady-state level: 40 h
  time to steady state level: 40 h
[6]; at higher doses
  principal side effect: Sedation
[6]; humans
  dose that can be safely administered: up to 30 mg/day

## CC(C)(O)c1ccccc1CC[C@@H](SCC1(CC(=O)O)CC1)c1cccc(/C=C/c2ccc3ccc(Cl)cc3n2)c1 [Montelukast, montelukast]
[7]; adult patients, 22 weeks
  dose administered without clinically important adverse experiences: up to 200 mg/day
[7]; short-term studies, approximately one week
  dose administered without clinically important adverse experiences: up to 900 mg/day
[5]; IV 7 mg vs approved 10 mg oral tablet
  plasma concentration area under the curve profile, IV vs oral tablet: comparable
[5]; in vivo, po
  drug interactions with warfarin, theophylline, digoxin, terfenadine, oral contraceptives, or prednisone: no drug interactions
[5]; in vivo
  absorption: rapidly absorbed
  linear pharmacokinetics, up to dose: ≤ 50 mg
  time to peak plasma concentration: 3 to 4 h
[5]; standard meal
  oral bioavailability and Cmax, effect of a standard meal: not affected

## CCOC(=O)C1=C[C@@H](OC(CC)CC)[C@H](NC(C)=O)[C@@H](N)C1 [oseltamivir]
[8]
  influenza related lower respiratory tract infections/complications: has not been shown to decrease; also recorded: did not appear to reduce
